# Patent US20240148821A1, “PHARMACEUTICAL USE OF CYCLIC PEPTIDE COMPOUND” (CHUGAI SEIYAKU KABUSHIKI KAISHA, priority 2021, published 2024)
# Bridge positions count the residues as written; N and C are the ends. Square brackets hold non-standard residues; d marks the D form. Peptide text beside a SMILES is read from it. * marks the point of attachment. hPhe(3-Cl-4-CF3) = N[C@@H](CCc1ccc(C(F)(F)F)c(Cl)c1)C(=O)O; hPhe(3-F,4-CF3) = N[C@@H](CCc1ccc(C(F)(F)F)c(F)c1)C(=O)O; NMePhe(4-Me) = CN[C@@H](Cc1ccc(C)cc1)C(=O)O; NMeGly(cPent) = CN[C@H](C(=O)O)C1CCCC1; NMeCha = CN[C@@H](CC1CCCCC1)C(=O)O; NMeD = CN[C@@H](CC(=O)O)C(=O)O; CH2CONHtBu = CC(C)(C)NC(=O)C*; NMeL = CN[C@@H](CC(C)C)C(=O)O; NMeV = CN[C@H](C(=O)O)C(C)C; d(β3hA) = C[C@@H](N)CC(=O)O; NMeAbu = CC[C@H](NC)C(=O)O; NMeS = CN[C@@H](CO)C(=O)O; NMeA = CN[C@@H](C)C(=O)O; Nle = CCCC[C@H](N)C(=O)O; Piperidide = C1CCN(*)CC1; Pyrrolidide = C1CCN(*)C1; dNMeA = CN[C@H](C)C(=O)O; Ac5c = NC1(C(=O)O)CCCC1; Aze = O=C(O)[C@@H]1CCN1; Abu = CC[C@H](N)C(=O)O; CH2CMe2OH = CC(C)(O)C*; Aib = CC(C)(N)C(=O)O; Isopentyl = CC(C)CC*; NEtG = CCNCC(=O)O; Sar = CNCC(=O)O
# Tested on: Human pancreatic cancer cell line AsPC-1 (G12D mutation Kras)
# Assay: AsPC-1 cell growth inhibition (AsPC-1 CGI)
# Type: cell-based
# Conditions: read-out: AsPC-1 cell growth inhibition, 50% growth inhibitory concentration (IC50 value); 96 hours, CellTiter-Glo, values classified in ranges
# Description: Test compounds were serially dilated with dimethyl sulfoxide, and 200 nL was then dispensed to a U-bottom 96-well plate using Labcyte Echo. […] The cell suspension was dispensed to a. plate containing a test compound at 100 μL per well and incubated at 37° C. in a 5% carbon dioxide gas incubator. 96 hours later, 80 μL of CellTiter-Glo (Promega) was added to each well and fluorescence was measured.
row,Structure (SMILES),IC50
1,CC[C@@H]1NC(=O)[C@H]([C@@H](C)CC)NC(=O)[C@H](CC(C)C)N(C)C(=O)C[C@@H](C)NC(=O)[C@H](C(C)C)N(C)C(=O)C2(CCCC2)NC(=O)[C@@H]2CCCN2C(=O)[C@H](CCc2ccc(C(F)(F)F)c(Cl)c2)NC(=O)CN(C)C(=O)[C@H](CC2CCCCC2)N(C)C(=O)CN(C)C1=O [Compound 1459] (cyclo([Abu][Sar][NMeCha][Sar][hPhe(3-Cl-4-CF3)]P[Ac5c][NMeV][d(β3hA)][NMeL]I)),> 500 nM
2,CC[C@H](C)[C@@H]1NC(=O)[C@H](C)N(C)C(=O)C[C@@H](C)NC(=O)[C@H](C2CCCC2)N(C)C(=O)C2(CCCC2)NC(=O)[C@@H]2CCCN2C(=O)[C@H](CCc2ccc(C(F)(F)F)c(Cl)c2)NC(=O)[C@@H](C)N(C)C(=O)[C@H](Cc2ccc(C)cc2)N(C)C(=O)CN(C)C(=O)CN(C)C1=O [Compound 1465] (cyclo([Ac5c][NMeGly(cPent)][d(β3hA)][NMeA]I[Sar][Sar][NMePhe(4-Me)][dNMeA][hPhe(3-Cl-4-CF3)]P)),> 500 nM
3,CC[C@H](C)[C@@H]1NC(=O)[C@H](CC(C)C)N(C)C(=O)C[C@@H](C)NC(=O)[C@H](CC(C)C)N(C)C(=O)C(C)(C)NC(=O)[C@H](COCC(=O)NC(C)(C)C)N(C)C(=O)[C@H](CCc2ccc(C(F)(F)F)c(Cl)c2)NC(=O)CN(C)C(=O)[C@H](COCCC(C)C)N(C)C(=O)CN(C)C(=O)CN(C)C1=O [Compound 1467] (cyclo([Aib][NMeL][d(β3hA)][NMeL]I[Sar][Sar][NMeS](Isopentyl)[Sar][hPhe(3-Cl-4-CF3)][NMeS](CH2CONHtBu))),> 500 nM
4,"CC[C@H](C)[C@@H]1NC(=O)[C@H](CC(C)C)N(C)C(=O)C[C@@H](C)NC(=O)[C@H](CC)N(C)C(=O)C2(CCCC2)NC(=O)[C@@H]2CCCN2C(=O)[C@H](CCc2ccc(C(F)(F)F)c(F)c2)NC(=O)CN(C)C(=O)[C@H](CC2CCCCC2)N(C)C(=O)CN(C)C(=O)CN(C)C1=O [Compound 1469] (cyclo([Ac5c][NMeAbu][d(β3hA)][NMeL]I[Sar][Sar][NMeCha][Sar][hPhe(3-F,4-CF3)]P))",> 500 nM
5,CC[C@H](C)[C@@H]1NC(=O)[C@H](CC(C)C)N(C)C(=O)C[C@@H](C)NC(=O)[C@H](CC(C)C)N(C)C(=O)C(C)(C)NC(=O)[C@H](COCC(C)(C)O)N(C)C(=O)[C@H](CCc2ccc(C(F)(F)F)c(Cl)c2)NC(=O)CN(C)C(=O)[C@H](COCCC(C)C)N(C)C(=O)[C@@H]2CCN2C(=O)CN(CC)C1=O [Compound 1472] (cyclo([Aib][NMeL][d(β3hA)][NMeL]I[NEtG][Aze][NMeS](Isopentyl)[Sar][hPhe(3-Cl-4-CF3)][NMeS](CH2CMe2OH))),> 500 nM
6,CC[C@H](C)[C@@H]1NC(=O)[C@H](C)N(C)C(=O)C[C@@H](C)NC(=O)[C@H](C2CCCC2)N(C)C(=O)C2(CCCC2)NC(=O)[C@@H]2CCCN2C(=O)[C@H](CCc2ccc(C(F)(F)F)c(Cl)c2)NC(=O)CN(C)C(=O)[C@H](CC2CCCCC2)N(C)C(=O)CN(C)C(=O)CN(C)C1=O [Compound 1478] (cyclo([Ac5c][NMeGly(cPent)][d(β3hA)][NMeA]I[Sar][Sar][NMeCha][Sar][hPhe(3-Cl-4-CF3)]P)),> 500 nM
7,CC[C@H](C)[C@@H]1NC(=O)[C@H](CC(C)C)N(C)C(=O)C[C@@H](C(=O)N2CCCCC2)N(C)C(=O)[C@H](CC(C)C)N(C)C(=O)C(C)(C)NC(=O)[C@H](COCC(=O)NC(C)(C)C)N(C)C(=O)[C@H](CCc2ccc(C(F)(F)F)c(Cl)c2)NC(=O)CN(C)C(=O)[C@H](COCCC(C)C)N(C)C(=O)CN(C)C(=O)CN(C)C1=O [Compound 1480] ([NMeL]I[Sar][Sar][NMeS](Isopentyl)[Sar][hPhe(3-Cl-4-CF3)][NMeS](CH2CONHtBu)[Aib][NMeL][NMeD]-Piperidide; lactam N-11),> 500 nM
8,CC[C@H](C)[C@@H]1NC(=O)[C@H](CC(C)C)N(C)C(=O)C[C@@H](C)NC(=O)[C@H](CC(C)C)N(C)C(=O)C(C)(C)NC(=O)[C@H](COCC(C)(C)O)N(C)C(=O)[C@H](CCc2ccc(C(F)(F)F)c(Cl)c2)NC(=O)CN(C)C(=O)[C@H](COCCC(C)C)N(C)C(=O)CN(CC)C(=O)CN(C)C1=O [Compound 1484] (cyclo([Aib][NMeL][d(β3hA)][NMeL]I[Sar][NEtG][NMeS](Isopentyl)[Sar][hPhe(3-Cl-4-CF3)][NMeS](CH2CMe2OH))),> 500 nM
9,"CC[C@H](C)[C@@H]1NC(=O)[C@H](CC(C)C)N(C)C(=O)C[C@@H](C(=O)N2CCCC2)NC(=O)[C@H](CC(C)C)N(C)C(=O)C2(CCCC2)NC(=O)[C@@H]2CCCN2C(=O)[C@H](CCc2ccc(C(F)(F)F)c(F)c2)NC(=O)CN(C)C(=O)[C@H](CC2CCCCC2)N(C)C(=O)CN(C)C(=O)CN(C)C1=O [Compound 1489] ([NMeL]I[Sar][Sar][NMeCha][Sar][hPhe(3-F,4-CF3)]P[Ac5c][NMeL]D-Pyrrolidide; lactam N-11)",> 500 nM
10,"CCCC[C@@H]1NC(=O)[C@H](CC(C)C)N(C)C(=O)C[C@@H](C)NC(=O)[C@H](CC(C)C)N(C)C(=O)C2(CCCC2)NC(=O)[C@@H]2CCCN2C(=O)[C@H](CCc2ccc(C(F)(F)F)c(F)c2)NC(=O)CN(C)C(=O)[C@H](CC2CCCCC2)N(C)C(=O)CN(C)C(=O)CN(C)C1=O [Compound 1490] (cyclo([Ac5c][NMeL][d(β3hA)][NMeL][Nle][Sar][Sar][NMeCha][Sar][hPhe(3-F,4-CF3)]P))",> 500 nM
